Results reported in patent US5869524A, “Indene inhibitors of COX-2” (American Home Products Corporation, priority 1997, dated 1999).

Key:
rhCOX-2 = target: T1, rhCOX-2 (Homo sapiens, UniProt P35354); assay: Inhibition of rhCOX-2 (PGF2α by EIA, microsomal human recombinant enzyme); assay type: biochemical; conditions: value in parentheses = IC50; 30 min preincubation, 30 μM arachidonic acid, 37° C., pH 7.8; read-out: % inh of rhCOX-2 (IC50)
T1 construct: made in house; host or cells: Sf9 or CHO cells (microsomal preparation)
T1 sequence (P35354 18-604): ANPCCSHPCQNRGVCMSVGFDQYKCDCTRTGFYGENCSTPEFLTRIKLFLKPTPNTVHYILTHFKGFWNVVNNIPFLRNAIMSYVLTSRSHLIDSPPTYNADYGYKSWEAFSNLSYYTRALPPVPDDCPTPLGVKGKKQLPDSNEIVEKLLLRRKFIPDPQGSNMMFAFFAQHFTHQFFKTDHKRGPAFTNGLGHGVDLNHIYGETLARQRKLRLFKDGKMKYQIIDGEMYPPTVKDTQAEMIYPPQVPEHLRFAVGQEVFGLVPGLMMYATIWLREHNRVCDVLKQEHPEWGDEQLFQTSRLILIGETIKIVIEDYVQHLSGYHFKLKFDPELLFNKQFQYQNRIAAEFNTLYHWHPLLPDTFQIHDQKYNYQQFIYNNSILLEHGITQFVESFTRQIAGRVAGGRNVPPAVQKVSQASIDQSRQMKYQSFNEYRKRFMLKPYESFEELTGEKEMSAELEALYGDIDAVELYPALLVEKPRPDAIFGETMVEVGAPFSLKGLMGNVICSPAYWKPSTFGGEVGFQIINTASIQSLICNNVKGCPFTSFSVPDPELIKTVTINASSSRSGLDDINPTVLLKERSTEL
Protocol: A representative compound of this invention was evaluated for inhibition of COX-2 and COX-1 enzymes as follows. Human COX-1 and COX-2 cDNAs were cloned from human monocytes, untreated and LPS-treated respectively, by RT-PCR using oligonucleotide primers based on published hCOX-1 and hCOX-2 sequences (Jones et al., J. Biol. Chem., 268, 9049 (1993)). The cDNAs were then transfected into either Sf9 or CHO cells and subsequently converted into a microsomal preparation as described by Glaser et al (Eur. J. Pharmacol. 281, 107-111 (1995)). The microsomal human recombinant enzymes were diluted with buffer (100 mM Tris, pH 7.8 at 37° C.) containing 0.5 mM phenol (964 μl total volume). The enzyme preparations were preincubated with vehicle (DMSO) or compounds in DMSO (1% DMSO in final assay) for 30 min at 37° C. Excess hematin was added 1 min prior to initiation of reaction ([…] final hematin) with 30 μM arachidonic acid (sodium salt). […]
The reaction was incubated for 35 sec (maximum level of PGH2 accumulation as determined from time course studies), and terminated by addition of […] of SnCl2 (1 mg/ml) in 0.1N HCl. PGH2 is quantitatively converted to PGF2a by this reaction (50% efficiency of total conversion). […] Combined ethyl acetate extracts were dried under N2 (g) and redissolved in EIA buffer (2.0 ml), and PGF2α was quantified by EIA.

Alzheimer's disease = conditions: Rogers et al. 1993; cited from earlier work
COX-2 = conditions: cited from earlier work; for inhibition of COX-1 and COX-2, selectivity in words: literature
[1] = Futaki et al. 1993; cited from earlier work

Q: For `CSc1ccc(/C=C2/C(C)=C(CC(=O)C3=C(O)COC3=O)c3cc(F)ccc32)cc1` [Example 1, (Z)-3-[[5-Fluoro-2-methyl-1-[[4-(methylthio)phenyl]methylene]-1H-inden-3-yl]acetyl]-4-hydroxy-2(5H)-furanone], which IC50 (rhCOX-2) is on record?
A: 27 nM

Q: With `COc1ccc2c(c1)c(CC(=O)O)c(C)n2C(=O)c1ccc(Cl)cc1` [Indomethacin] as the compound, how does the “treatment of Alzheimer's disease” value (Alzheimer's disease) read?
A: useful in the treatment of Alzheimer's disease

Q: And the “inhibition of COX-1 and COX-2, selectivity in words” value (COX-2)?
A: relatively non-selective inhibitor of COX-1 and COX-2

Q: With `CCc1cccc2c3c([nH]c12)C(CC)(CC(=O)O)OCC3` (stereo not shown) [etodolac] as the compound, how does the “selectivity for inhibition of COX-2” value (COX-2; fold, reported by Glaser et al. 1995) read?
A: tenfold

Q: Which results are given for `CS(=O)(=O)Nc1ccc([N+](=O)[O-])cc1OC1CCCCC1` [N-(2-cyclohexyloxy-4-nitrophenyl)methanesulfonamide]?
A: antiinflammatory effect [1]: effective antiinflammatory; gastric side effects [1]: lacks gastric side effects; inhibition of COX-1 and COX-2, selectivity in words (COX-2): selective COX-2 inhibitor
